Laboratory results from US20260109707A1, “HETEROBIFUNCTIONAL COMPOUNDS AND METHODS OF TREATING DISEASE” (Halda Therapeutics OpCo. Inc., priority 2022, published 2026).
Where two headings read alike, the source gives them in different places.

What was measured:
[1] = system: T-Rex 293 cell line SC3 cells having increased expression of androgen receptor protein due to exposure to doxycycline; assay: Cellular growth inhibition assay, T-Rex 293 SC3 cells with doxycycline (CellTiter-Glo, 72 hours); type: cell-based; settings: T-Rex 293 SC3 cells with increased androgen receptor expression due to doxycycline (10 ng/mL)
Outline: (§1)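 Growth inhibition is measured in an inducible AR-expressing T-Rex 293 clone, SC3, cultured with or without 10 ng/mL doxycycline in hormone-depleted medium. Test compounds are applied for 72 hours. GI50 values derive from CellTiter-Glo 2.0 signal fitted by four-parameter regression.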

VCaP cells = assay: Cellular growth inhibition assay for VCaP cells (CellTiter-Glo, 72 hours); type: cell-based, human
Outline: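 Luminescent viability signal after 72 h of compound exposure gave GI50 values by four-parameter nonlinear regression. Compounds were added in 0.5% DMSO to cells plated 24 h earlier at 5000/well in DMEM containing 10% FBS.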

[2] = system: T-Rex 293 cell line SC3 cells lacking increased expression of androgen receptor protein; assay: Cellular growth inhibition assay, T-Rex 293 SC3 cells without doxycycline (CellTiter-Glo, 72 hours); type: cell-based; settings: T-Rex 293 cell line SC3 cells not exposed to doxycycline (lacking increased androgen receptor expression)
Outline: as §1

SMILES | GI50 ([1]; 72 h) [nM] | GI50 (VCaP cells; Homo sapiens, VCaP, 72 h) [nM] | GI50 ([2]; 72 h) [nM] | GI50 [1] [nM] | GI50 (VCaP cells) [nM] | GI50 [2] [nM]
Cc1sc2c(c1C)C(c1ccccc1OCCC1CCN(c3ccc(C(=O)N[C@H]4CC[C@H](Oc5ccc(C#N)c(Cl)c5)CC4)nn3)CC1)=N[C@@H](C)c1nnc(C)n1-2 [I-689] | > 3000 | > 3000 | > 3000 |  |  | 
Cc1sc2c(c1C)C(c1ccc(COC3CCC4(CCCN(c5ccc(C(=O)N[C@H]6CC[C@H](Oc7ccc(C#N)c(Cl)c7)CC6)nn5)C4)C3)cc1)=N[C@@H](C)c1nnc(C)n1-2 (stereo partly drawn) [I-625] |  |  |  | < 500 | < 500 | < 500
Cc1sc2c(c1C)C(c1ccc(C3CC(N4CCN(c5ccc(C(=O)N[C@H]6CC[C@H](Oc7ccc(C#N)c(Cl)c7)CC6)nn5)CC4)C3)cc1)=N[C@@H](C)c1nnc(C)n1-2 (stereo partly drawn) [I-589] | < 500 | < 500 | < 500 |  |  | 
Cc1sc2c(c1C)C(c1ccc(N3CCN(C4CCN(c5ncc(C(=O)N[C@H]6CC[C@H](Oc7ccc(C#N)c(Cl)c7)CC6)cn5)CC4)CC3)cc1)=NC(Cc1ncco1)c1nnc(C)n1-2 (stereo partly drawn) [I-798] | < 500 | < 500 | < 500 |  |  | 
Cc1sc2c(c1C)C(c1ccc(COC3CCC4(CCCN(c5ccc(C(=O)N[C@H]6CC[C@H](Oc7ccc(C#N)c(Cl)c7)CC6)nn5)C4)C3)cc1)=NC1(CC1)c1nnc(C)n1-2 (stereo partly drawn) [I-509] |  | > 3000 |  | < 500 |  | > 3000
Cc1sc2c(c1C)C(c1ccc(CCCC3CCCN(c4ccc(C(=O)N[C@H]5CC[C@H](Oc6ccc(C#N)c(Cl)c6)CC5)nn4)CC3)cc1)=N[C@@H](C)c1nnc(C)n1-2 (stereo partly drawn) [I-669] | < 500 | < 500 |  |  |  | > 3000
Cc1sc2c(c1C)C(c1ccc(OCC3CC4(CCCN(c5ccc(C(=O)N[C@H]6CC[C@H](Oc7ccc(C#N)c(Cl)c7)CC6)nn5)C4)C3)cc1)=NCc1nnc(C)n1-2 (stereo partly drawn) [I-447] |  |  |  | < 500 | > 3000 | > 3000
Cc1sc2c(c1C)C(c1ccc(N3CC(CC4CCCN(c5ccc(C(=O)N[C@H]6CC[C@H](Oc7ccc(C#N)c(Cl)c7)CC6)nn5)C4)C3)cc1)=NC1(CC1)c1nnc(C)n1-2 (stereo partly drawn) [I-598] | < 500 |  |  |  | < 500 | < 500
Cc1sc2c(c1C)C(c1ccc(CC3CC4(CCN(c5ccc(C(=O)N[C@H]6CC[C@H](Oc7ccc(C#N)c(Cl)c7)CC6)nn5)CC4)C3)cc1)=NC1(CC1)c1nnc(C)n1-2 [I-444] | < 500 | < 500 | > 3000 |  |  | 
CC[C@@H]1N=C(c2ccc(N3CCC(CCc4ccc(C(=O)N[C@H]5CC[C@H](Oc6ccc(C#N)c(Cl)c6)CC5)nn4)CC3)cc2)c2c(sc(C)c2C)-n2c(C)nnc21 [I-613] | < 500 | < 500 | 1500 to 3000 |  |  | 
Cc1sc2c(c1C)C(c1ccc(N3CCC4CN(c5ccc(C(=O)N[C@H]6CC[C@H](Oc7ccc(C#N)c(Cl)c7)CC6)nn5)CCC4C3)cc1)=NC1(CC1)c1nnc(C)n1-2 (stereo partly drawn) [I-564] |  |  |  | < 500 | > 3000 | 500 to 1500
Cc1sc2c(c1C)C(c1ccc(C3CCC4(CC3)CCN(c3ccc(C(=O)N[C@H]5CC[C@H](Oc6ccc(C#N)c(Cl)c6)CC5)nn3)C4)cn1)=NC1(CC1)c1nnc(C)n1-2 (stereo partly drawn) [I-718] |  |  |  | 1500 to 3000 | < 500 | > 3000
Cc1sc2c(c1C)C(c1ccc(OC3(C)CC4(CN(c5ccc(C(=O)N[C@H]6CC[C@H](Oc7ccc(C#N)c(Cl)c7)CC6)nn5)C4)C3)cc1)=N[C@@H](Cc1ncco1)c1nnc(C)n1-2 [I-468] | < 500 | < 500 | < 500 |  |  | 
CC[C@@H]1N=C(c2ccc(C3CCC4(CCN(c5ccc(C(=O)N[C@H]6CC[C@H](Oc7ccc(C#N)c(Cl)c7)CC6)nn5)CC4)C3)cc2)c2c(sc(C)c2C)-n2c(C)nnc21 (stereo partly drawn) [I-574] | < 500 | < 500 | > 3000 |  |  | 
Cc1sc2c(c1C)C(c1ccc(N3CCN(CC4CCN(c5ccc(C(=O)N[C@H]6CC[C@H](Oc7ccc(C#N)c(Cl)c7)CC6)nn5)CC4)CC3)cc1)=NC1(CC1)c1nnc(C)n1-2 [I-491] | < 500 | > 3000 | < 500 |  |  | 
Cc1sc2c(c1C)C(c1ccc(N3CCC(CCc4ccc(C(=O)N[C@H]5CC[C@H](Oc6ccc(C#N)c(Cl)c6)CC5)nn4)CC3)cc1)=N[C@@H](Cc1ncco1)c1nnc(C)n1-2 [I-467] | < 500 | < 500 | < 500 |  |  | 
Cc1sc2c(c1C)C(c1ccc(CC3CC4(CCCN(c5ccc(C(=O)N[C@H]6CC[C@H](Oc7ccc(C#N)c(Cl)c7)CC6)nn5)C4)C3)cn1)=NC(Cc1ncco1)c1nnc(C)n1-2 (stereo partly drawn) [I-768] |  | < 500 |  | < 500 |  | > 3000
Cc1sc2c(c1C)C(c1ccc(C#CC3CC(Cc4ccc(C(=O)N[C@H]5CC[C@H](Oc6ccc(C#N)c(Cl)c6)CC5)nn4)C3)cc1)=N[C@@H](Cc1ncco1)c1nnc(C)n1-2 (stereo partly drawn) [I-646] |  |  |  | < 500 | < 500 | < 500

SMILES | GI50 ([1]; 72 h) [nM] | GI50 (VCaP cells; Homo sapiens, VCaP, 72 h) [nM] | GI50 ([2]; 72 h) [nM] | GI50 [1] [nM] | GI50 (VCaP cells) [nM] | GI50 [2] [nM]
CCNC(=O)C[C@@H]1N=C(c2ccc(N3CC(N(C(C)C)C4CN(c5ccc(C(=O)N[C@H]6CC[C@H](Oc7ccc(C#N)c(Cl)c7)CC6)nn5)C4)C3)cc2)c2c(sc(C)c2C)-n2c(C)nnc21 [I-64] | < 500 | < 500 | 500 to 1500 |  |  | 
Cc1sc2c(c1C)C(c1ccc(COC3CCC4(C3)CN(c3ccc(C(=O)N[C@H]5CC[C@H](Oc6ccc(C#N)c(Cl)c6)CC5)nn3)CCO4)cc1)=N[C@@H](C)c1nnc(C)n1-2 (stereo partly drawn) [I-558] |  |  |  | < 500 | < 500 | < 500
Cc1sc2c(c1C)C(c1ccc(OC3CC4(C3)CC3(CCN(c5ccc(C(=O)N[C@H]6CC[C@H](Oc7ccc(C#N)c(Cl)c7)CC6)nn5)CC3)C4)nc1)=NC1(CC1)c1nnc(C)n1-2 [I-504] | < 500 | < 500 | 500 to 1500 |  |  | 
Cc1sc2c(c1C)C(c1ccc(CCCC3CCCN(c4ccc(C(=O)N[C@H]5CC[C@H](Oc6ccc(C#N)c(Cl)c6)CC5)nn4)CC3)cc1)=N[C@@H](C)c1nnc(C)n1-2 (stereo partly drawn) [I-670] |  |  |  | < 500 | < 500 | < 500
Cc1sc2c(c1C)C(c1ccc(OCC3CC4(CCCN(c5ccc(C(=O)N[C@H]6CC[C@H](Oc7ccc(C#N)c(Cl)c7)CC6)nn5)C4)C3)cn1)=NC1(CC1)c1nnc(C)n1-2 (stereo partly drawn) [I-561] | < 500 |  |  |  | > 3000 | 500 to 1500
Cc1sc2c(c1C)C(c1ccccc1N1CC3(CCN(c4ccc(C(=O)N[C@H]5CC[C@H](Oc6ccc(C#N)c(Cl)c6)CC5)nn4)CC3)C1)=N[C@@H](C)c1nnc(C)n1-2 [I-751] | < 500 | < 500 | < 500 |  |  | 
CCNC(=O)C[C@@H]1N=C(c2ccc(OC3CN(CC4CCN(c5ccc(C(=O)N[C@H]6CC[C@H](Oc7ccc(C#N)c(Cl)c7)CC6)nn5)CC4)C3)cc2)c2c(sc(C)c2C)-n2c(C)nnc21 [I-45] | < 500 | 500 to 1500 | 500 to 1500 |  |  | 
Cc1sc2c(c1C)C(c1ccc(N3CC[C@@H](CNc4ncc(C(=O)N[C@H]5CC[C@H](Oc6ccc(C#N)c(Cl)c6)CC5)cn4)C3)cc1)=NC(Cc1ncco1)c1nnc(C)n1-2 (stereo partly drawn) [I-795] | < 500 | 500 to 1500 | < 500 |  |  | 
Cc1sc2c(c1C)C(c1ccc(CC3CCC4(CCCN(c5ccc(C(=O)N[C@H]6CC[C@H](Oc7ccc(C#N)c(Cl)c7)CC6)nn5)C4)C3)cn1)=N[C@@H](C)c1nnc(C)n1-2 (stereo partly drawn) [I-623] |  |  |  | < 500 | 500 to 1500 | 500 to 1500
CC[C@@H]1N=C(c2ccc(N3CCC4(CC3)CCN(c3ccc(C(=O)N[C@H]5CC[C@H](Oc6ccc(C#N)c(Cl)c6)CC5)nn3)C4)cc2)c2c(sc(C)c2C)-n2c(C)nnc21 [I-530] | < 500 | > 3000 | < 500 |  |  | 
CCNC(=O)C[C@@H]1N=C(c2ccc(CCCCCCOC3CCN(c4ccc(C(=O)N[C@H]5CC[C@H](Oc6ccc(C#N)c(Cl)c6)CC5)nn4)CC3)cc2)c2c(sc(C)c2C)-n2c(C)nnc21 [I-22] | < 500 | 500 to 1500 | 500 to 1500 |  |  | 
Cc1sc2c(c1C)C(c1ccc(OC3CCC4(CCN(c5ccc(C(=O)N[C@H]6CC[C@H](Oc7ccc(C#N)c(Cl)c7)CC6)nn5)C4)C3)cc1)=N[C@@H](C)c1nnc(C)n1-2 (stereo partly drawn) [I-701] |  | < 500 |  | < 500 |  | < 500
Cc1sc2c(c1C)C(c1ccc(N3CCC4(CCN(c5ccc(C(=O)N[C@H]6CC[C@H](Oc7ccc(C#N)c(Cl)c7)CC6)nn5)C4)C3)cc1)=NC1(CC1)c1nnc(C)n1-2 (stereo partly drawn) [I-522] |  |  |  | < 500 | 500 to 1500 | < 500
Cc1sc2c(c1C)C(c1ccc(OCC3CC4(CCCN(c5ccc(C(=O)N[C@H]6CC[C@H](Oc7ccc(C#N)c(Cl)c7)CC6)nn5)C4)C3)cn1)=N[C@@H](C)c1nnc(C)n1-2 (stereo partly drawn) [I-483] |  |  |  | < 500 | < 500 | < 500
Cc1sc2c(c1C)C(c1ccc(CC3CCC4(CCCN(c5ccc(C(=O)N[C@H]6CC[C@H](Oc7ccc(C#N)c(Cl)c7)CC6)nn5)C4)C3)cn1)=N[C@@H](C)c1nnc(C)n1-2 (stereo partly drawn) [I-622] | < 500 |  | < 500 |  | > 3000 | 
CC[C@@H]1N=C(c2ccc(C3CCC4(CC3)CCN(c3ccc(C(=O)N[C@H]5CC[C@H](Oc6ccc(C#N)c(Cl)c6)CC5)nn3)C4)cc2)c2c(sc(C)c2C)-n2c(C)nnc21 (single isomer, unassigned) [I-634] |  |  |  | < 500 | < 500 | 500 to 1500
Cc1sc2c(c1C)C(c1ccc(CC3CCC4(C3)CN(c3ccc(C(=O)N[C@H]5CC[C@H](Oc6ccc(C#N)c(Cl)c6)CC5)nn3)CCO4)cc1)=NC1(CC1)c1nnc(C)n1-2 (stereo partly drawn) [I-527] | < 500 | 1500 to 3000 | > 3000 |  |  | 
